How the values were obtained:
Type in all cases: physicochemical
[1] = Solubility in aqueous isopropanol solution
Source text: Crystalline forms I, II and III are distinguished by DSC, solubility in aqueous isopropanol, and lattice spacing in powder X-ray diffraction patterns. […]

[2] = Stability test of amorphous form and crystalline forms I-IV, 40° C./75% RH, airtight container
Experimental: Crystalline form III of Example 7a were dissolved in water and subjected to lyophilisation to afford (2S,5R)-N-(2-aminoethoxy)-7-oxo-6-(sulfooxy)-1,6-diazabicyclo[3.2.1]octane-2-carboxamide (VII-1) in an amorphous form. The compounds in an amorphous form and crystalline forms I-IV of Examples 5-8 were each weighed in a screw bottle, and stability tests were conducted at each of the temperatures and humidity conditions. The methods of measurement of related substances, content measurement, and water content measurement were as follows.
(§1) Samples were dissolved in water, and these solutions were used as sample solutions. The sample solutions each in the amount of 5 μL were tested under the following conditions by JP16, Liquid Chromatography <2.01>to obtain the amount of each related substance (%) and the total amount of related substances (%), and the content.
(§2) • Column: Waters Atlantis dc18, 5 μm, 4.6×250 mm • Column temperature: a constant temperature of about 35° C. • Injected amount: 5 μL • Detector: an ultraviolet absorption photometer (wavelength: 210 nm) • Mobile phase A: 1.32 g of diammonium hydrogenphosphate was dissolved in 900 mL of water, and phosphoric acid was added to adjust the pH to 3.0. To this was then added water to make 1000 mL. • Mobile phase B: Acetonitrile for liquid chromatography • Gradient program: The mixing ratio of mobile phase A to mobile phase B was controlled as the following time program.
(§3) About 20 mg of the product was precisely measured and tested by JP16, Water Determination <2.48>Coulometric titration.

[3] = Experiment on crystal transformation (powder X-ray diffraction after stirring suspension or storage)
Experimental: (§4) Crystal transformation in the polymorphism of the compound represented by Formula (VII-1) obtained in the present invention are not observed in a stability test carried out at 40° C. in the solid state or in stirring the suspension in a hydrous solvent for a long time. When crystalline form III of the compound represented by Formula (VII-1) was subjected to an XRD-DSC experiment, heated to 160° C. at 60% RH, and then allowed to cool on standing to 63° C., the crystalline form changed to anhydrous crystalline form over about 145° C., and then returned to the crystalline form III below about 90° C. after cooling. On the basis of these findings, a crystalline form of a compound represented by Formula (VII-1), particularly the crystalline form III constitutes a stable form under ordinary conditions.
A small amount of a suspension of the crystals of Example 6a was taken and stirred at room temperature for one day. The precipitated crystals were collected and subjected to powder X-ray crystal diffraction.
In the step of Example 7a, a small amount was taken out of the suspension immediately after the seeding and of the suspension after the dropwise addition of isopropanol, and each of the taken-out portions was stirred with a stirring bar at room temperature for one day and four days. The precipitated crystals were collected and subjected to powder X-ray crystals diffraction.
Crystalline form IV of Examples 8a-c was taken and isopropanol/water (6/1) was added thereto and suspended and stirred at 25° C. or 40° C. for one week. Samples were taken after 12 hours, 24 hours (one day), 48 hours (two days), 72 hours (three days), 96 hours (four days) and 168 hours (one week), and subjected to powder X-ray crystal diffraction after through-flow drying.

[4] = Stability of crystalline form III in a packaging container; details: polyethylene bag/aluminium laminated bag
Experimental: as §1, §2, §3
Crystalline form III was packaged under the following conditions and stability tests were conducted at each of the temperatures and humidity conditions under analysis conditions of Example 9a. The results are shown in Tables 10-12. • Packaging container • Inner bag: a low-density polyethylene·nylon tie band • Outer bag: an aluminium laminated bag·heat sealed

[5] = XRD-DSC experiment on crystalline form III (crystal transformation by heating)
Experimental: as §4
Crystal transformation by heating in polymorphism of crystalline form III of Example 7a was examined using XRD-DSC. Heating and cooling conditions were as follows: the temperature was elevated at a rate of 2° C./min from room temperature to 160° C. and then cooled to 63° C. under a constant relative humidity (RH) of 60%. DSC and XRD of the samples were successively measured. […]

[6] = 60° C., 4 weeks (text: 1 month)

SMILES: NCCONC(=O)[C@@H]1CC[C@@H]2CN1C(=O)N2OS(=O)(=O)O [Crystalline form II, (2S,5R)-N-(2-aminoethoxy)-7-oxo-6-(sulfooxy)-1,6-diazabicyclo[3.2.1]octane-2-carboxamide]
- Solubility in an aqueous 60% isopropanol solution ([1]; 10° C.): 0.67%
- Solubility in an aqueous 60% isopropanol solution ([1]; 20° C.): 0.74%
- Content ([2]; 1 month): 99.8%
- Total amount of related substances ([2]; 1 month): 0.0%
- Water content ([2]; 1 month): 5.6%
- Content ([2]; 1 month, listed as Form II): 99.8%
- Total amount of related substances ([2]; 1 month, listed as Form II): 0.0%
- Water content ([2]; 1 month, listed as Form II): 5.6%
- Content ([2]; 3 months): 99.3%
- Total amount of related substances ([2]; 3 months): 0.5%
- Water content ([2]; 3 months): 5.9%
- Content ([2]; 3 months, listed as Form II): 99.3%
- Total amount of related substances ([2]; 3 months, listed as Form II): 0.5%
- Water content ([2]; 3 months, listed as Form II): 5.9%
- Content ([2]; at start): 99.8%
- Total amount of related substances ([2]; at start): 0.1%
- Water content ([2]; at start): 5.7%
- Content ([2]; at start, listed as Form II): 99.8%
- Total amount of related substances ([2]; at start, listed as Form II): 0.1%
- Water content ([2]; at start, listed as Form II): 5.7%
- Crystal transformation to a different crystal form ([3]; suspension of the crystals stirred at room temperature for one day, powder X-ray diffraction): No crystal transformation to a different crystal form was observed

SMILES: NCCONC(=O)[C@@H]1CC[C@@H]2CN1C(=O)N2OS(=O)(=O)O [Crystalline form III, (2S,5R)-N-(2-aminoethoxy)-7-oxo-6-(sulfooxy)-1,6-diazabicyclo[3.2.1]octane-2-carboxamide]
- Content ([4]; 25° C./60% RH, 3 months): 99.9%
- Total amount of related substances ([4]; 25° C./60% RH, 3 months): 0.07%
- Water content ([4]; 25° C./60% RH, 3 months): 5.23%
- Content ([4]; 25° C./60% RH, at start): 99.9%
- Total amount of related substances ([4]; 25° C./60% RH, at start): 0.09%
- Water content ([4]; 25° C./60% RH, at start): 5.32%
- Content ([4]; 40° C./75% RH, 1 month): 99.9%
- Total amount of related substances ([4]; 40° C./75% RH, 1 month): 0.07%
- Water content ([4]; 40° C./75% RH, 1 month): 5.51%
- Content ([4]; 40° C./75% RH, 2 months): 99.9%
- Total amount of related substances ([4]; 40° C./75% RH, 2 months): 0.04%
- Water content ([4]; 40° C./75% RH, 2 months): 5.27%
- Content ([4]; 40° C./75% RH, 3 months): 99.9%
- Total amount of related substances ([4]; 40° C./75% RH, 3 months): 0.06%
- Water content ([4]; 40° C./75% RH, 3 months): 5.29%
- Content ([4]; 40° C./75% RH, at start): 99.9%
- Total amount of related substances ([4]; 40° C./75% RH, at start): 0.09%
- Water content ([4]; 40° C./75% RH, at start): 5.20%
- Content ([4]; 60° C., 2 weeks): 99.9%
- Total amount of related substances ([4]; 60° C., 2 weeks): 0.02%
- Water content ([4]; 60° C., 2 weeks): 5.20%
- Content [4, 6]: 99.9%
- Total amount of related substances [4, 6]: 0.04%
- Water content [4, 6]: 5.08%
- Content ([4]; 60° C., at start): 99.9%
- Total amount of related substances ([4]; 60° C., at start): 0.09%
- Water content ([4]; 60° C., at start): 5.20%
- Solubility in an aqueous 60% isopropanol solution ([1]; 10° C.): 0.76%
- Solubility in an aqueous 60% isopropanol solution ([1]; 20° C.): 0.80%
- Content ([2]; 1 month): 100.0%
- Total amount of related substances ([2]; 1 month): 0.0%
- Water content ([2]; 1 month): 5.3%
- Content ([2]; 1 month, listed as Form III): 100.0%
- Total amount of related substances ([2]; 1 month, listed as Form III): 0.0%
- Water content ([2]; 1 month, listed as Form III): 5.3%
- Content ([2]; 3 months): 99.9%
- Total amount of related substances ([2]; 3 months): 0.0%
- Water content ([2]; 3 months): 5.5%
- Content ([2]; 3 months, listed as Form III): 99.9%
- Total amount of related substances ([2]; 3 months, listed as Form III): 0.0%
- Water content ([2]; 3 months, listed as Form III): 5.5%
- Content ([2]; at start): 99.9%
- Total amount of related substances ([2]; at start): 0.0%
- Water content ([2]; at start): 5.3%
- Content ([2]; at start, listed as Form III): 99.9%
- Total amount of related substances ([2]; at start, listed as Form III): 0.0%
- Water content ([2]; at start, listed as Form III): 5.3%
- Temperature at which it returned to the crystalline form III after cooling ([5]; allowed to cool to 63° C. at 60% RH): below 90 °C
- Temperature at which the crystalline form changed to anhydrous crystalline form ([5]; heated to 160° C. at 60% RH): over 145 °C
- Crystal transformation to a different crystal form ([3]; suspensions after seeding and after isopropanol addition, stirred at room temperature for one day and four days): No crystal transformation to a different crystal form was observed

SMILES: NCCONC(=O)[C@@H]1CC[C@@H]2CN1C(=O)N2OS(=O)(=O)O [Crystalline form IV, (2S,5R)-N-(2-aminoethoxy)-7-oxo-6-(sulfooxy)-1,6-diazabicyclo[3.2.1]octane-2-carboxamide]
- Content ([2]; 1 month): 99.8%
- Total amount of related substances ([2]; 1 month): 0.0%
- Water content ([2]; 1 month): 0.1%
- Content ([2]; 1 month, listed as Form IV): 99.8%
- Total amount of related substances ([2]; 1 month, listed as Form IV): 0.0%
- Water content ([2]; 1 month, listed as Form IV): 0.1%
- Content ([2]; at start): 99.9%
- Total amount of related substances ([2]; at start): 0.0%
- Water content ([2]; at start): 0.1%
- Content ([2]; at start, listed as Form IV): 99.9%
- Total amount of related substances ([2]; at start, listed as Form IV): 0.0%
- Water content ([2]; at start, listed as Form IV): 0.1%
- Crystal transformation to a different crystal form ([3]; suspended in isopropanol/water (6/1), stirred at 25° C. or 40° C., 12 hours to one week): No crystal transformation to a different crystal form was observed

Source: patent US20250059191A1, “CRYSTALLINE FORMS OF DIAZABICYCLOOCTANE DERIVATIVE AND PRODUCTION PROCESS THEREOF” (MEIJI SEIKA PHARMA CO., LTD., priority 2013, published 2025)
